Source: patent US11708348B2, “Protease inhibitors for treatment of coronavirus infections” (The Scripps Research Institute, priority 2021, dated 2023)
Where two headings read alike, the source gives them in different places.

Test system: SARS-CoV-2 strain USA-WA1/2020
Test: microbe, parasite or virus in culture
Type: cell-based
Details: Severe acute respiratory syndrome coronavirus 2, HeLa-ACE2, 24 h, read-out: EC50, uM (Hela)
[1] = HeLa-ACE2 cells, SARS-CoV-2 infection, 24 h
[2] = HeLa-ACE2 cells, SARS-CoV-2 infection, 24 h, class symbols

Structure (SMILES)	EC50 [1]	further results
CC(=O)N[C@H](C(=O)N1CC2(CC2)C[C@H]1C(=O)N[C@@H](C[C@@H]1CCNC1=O)C(=O)COC(F)(F)F)C(C)(C)C [Compound 436, (S)-5-((S)-2-acetamido-3,3-dimethylbutanoyl)-N-((S)-3-oxo-1-((S)-2-oxopyrrolidin-3-yl)-4-(trifluoromethoxy)butan-2-yl)-5-azaspiro[2.4]heptane-6-carboxamide]	–	EC50 (HeLa-ACE2 cells, SARS-CoV-2 infection, 24 h, given as bound): > 1 µM
CC1(C)[C@@H]2[C@@H](C(=O)N[C@H](C[C@@H]3CCNC3=O)C(=O)COC(F)(F)F)N(C(=O)c3cc(C(F)(F)F)no3)C[C@@H]21 [Compound 492, (1R,2S,5S)-6,6-dimethyl-N-((R)-3-oxo-1-((S)-2-oxopyrrolidin-3-yl)-4-(trifluoromethoxy)butan-2-yl)-3-(3-(trifluoromethyl)-isoxazole-5-carbonyl)-3-azabicyclo[3.1.0]-hexane-2-carboxamide]	0.05 to 0.2 µM	–
CC(C)(NC(=O)C(=O)N1C[C@H]2[C@@H]([C@H]1C(=O)N[C@@H](C[C@@H]1CCNC1=O)C(=O)COC(F)(F)F)C2(C)C)C(F)F [Compound 555, (1R,2S,5S)-3-(2-((l,l-difluoro-2-methylpropan-2-yl)amino)-2-oxoacetyl)-6,6-dimethyl-N-((S)-3-oxo-1-((S)-2-oxopyrrolidin-3-yl)-4-(trifluoromethoxy)butan-2-yl)-3-azabicyclo-[3.1.0]hexane-2-carboxamide]	< 0.05 µM	–
CC1(C)[C@@H]2[C@@H](C(=O)N[C@@H](C[C@@H]3CCNC3=O)C(=O)COC(F)(F)F)N(C(=O)C34CC(C(F)(F)F)(CO3)C4)C[C@@H]21 [Compound 318, (1R,2S,5S)-6,6-dimethyl-N-((S)-3-oxo-1-((S)-2-oxopyrrolidin-3-yl)-4-(trifluoromethoxy)butan-2-yl)-3-(4-(trifluoromethyl)-2-oxabicyclo[2.1.1]-hexane-1-carbonyl)-3-azabicyclo[3.1.0]-hexane-2-carboxamide]	–	EC50 [2]: 0.05 to 0.2 µM
CC(C)C[C@H](NC(=O)c1cc2cc(F)ccc2[nH]1)C(=O)N[C@@H](C[C@@H]1CCNC1=O)C(=O)COP(=O)(c1ccccc1)c1ccccc1 [Compound 50, (S)-3-((S)-2-(5-fluoro-1H-indole-2-carboxamido)-4-methylpentanamido)-2-oxo-4-((S)-2-oxopyrrolidin-3-yl)butyl diphenylphosphinate]	–	EC50: 0.2 to 0.5 µM
CC(C)C[C@@H](O)C(=O)N1CCC(C)(C)C[C@H]1C(=O)N[C@@H](C[C@@H]1CCNC1=O)C(=O)COC(F)(F)F [Compound 641, (S)-1-((R)-2-hydroxy-4-methylpentanoyl)-4,4-dimethyl-N-((S)-3-oxo-1-((S)-2-oxopyrrolidin-3-yl)-4-(trifluoromethoxy)butan-2-yl)piperidine-2-carboxamide]	< 0.05 µM	–
CC(C)C[C@H](NC(=O)C(=O)Nc1cccc2ccccc12)C(=O)N[C@@H](C[C@@H]1CCNC1=O)C(=O)COc1c(F)c(F)cc(F)c1F [Compound 51, N1-((S)-4-methyl-1-oxo-1-(((S)-3-oxo-1-((S)-2-oxopyrrolidin-3-yl)-4-(2,3,5,6-tetrafluorophenoxy)butan-2-yl)amino)pentan-2-yl)-N2-(naphthalen-1-yl)oxalamide]	–	EC50 [2]: < 0.05 µM
COC1(C(=O)N2CC3(CC3)C[C@H]2C(=O)N[C@@H](C[C@@H]2CCNC2=O)C(=O)COC(F)(F)F)CCC(F)(F)CC1 [Compound 646, (S)-5-(4,4-difluoro-1-methoxycyclohexane-1-carbonyl)-N-((S)-3-oxo-1-((S)-2-oxopyrrolidin-3-yl)-4-(trifluoromethoxy)butan-2-yl)-5-azaspiro[2.4]heptane-6-carboxamide]	< 0.05 µM	–
CC(C)C[C@@H](O)C(=O)N1CC2(CCC2)CC1C(=O)N[C@@H](C[C@@H]1CCNC1=O)C(=O)COC(F)(F)F (stereo partly drawn) [Compound 770, 6-((R)-2-hydroxy-4-methylpentanoyl)-N-((S)-3-oxo-1-((S)-2-oxopyrrolidin-3-yl)-4-(trifluoromethoxy)butan-2-yl)-6-azaspiro[3.4]octane-7-carboxamide]	0.05 to 0.2 µM	–
